Results published in the supplement of paper PMC10307832.

Legend:
Test in all cases: relative viability (nuclei count vs DMSO), 5 days (fraction); higher = more cells survive
[1] = compound: C=CCNC1=C2C[C@@H](C)C[C@H](OC)[C@H](O)[C@@H](C)/C=C(\C)[C@H](OC(N)=O)[C@@H](OC)/C=C\C=C(/C)C(=O)NC(=CC1=O)C2=O [17-AAG] + CS(=O)(=O)CCNCc1ccc(-c2ccc3ncnc(Nc4ccc(OCc5cccc(F)c5)c(Cl)c4)c3c2)o1 [Lapatinib] (partner 2 µM)
Procedure, shortened: (§1)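 Relative viability equals treated-well nuclei counts divided by vehicle-well nuclei counts. Counts came from 4× images of lung cancer cell lines grown in 1536-well plates for 5 days after pin-tool dosing on the day after seeding. Dosing used one drug alone or a fixed anchor-drug dose plus five library-drug doses (not always all listed) in √10 steps, and values are medians of duplicate plates.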

[2] = compound: C=CCNC1=C2C[C@@H](C)C[C@H](OC)[C@H](O)[C@@H](C)/C=C(\C)[C@H](OC(N)=O)[C@@H](OC)/C=C\C=C(/C)C(=O)NC(=CC1=O)C2=O [17-AAG] + COc1cccc2cc(-c3nc([C@H]4CC[C@H](C(=O)O)CC4)n4ncnc(N)c34)[nH]c12 [OSI-027] (partner 0.5 µM)
Procedure, shortened: as §1

[3] = compound: C=CCNC1=C2C[C@@H](C)C[C@H](OC)[C@H](O)[C@@H](C)/C=C(\C)[C@H](OC(N)=O)[C@@H](OC)/C=C\C=C(/C)C(=O)NC(=CC1=O)C2=O [17-AAG] + C[C@]1(O)C[C@@H](c2nc(-c3ccc4ccc(-c5ccccc5)nc4c3)c3c(N)nccn32)C1 [Linsitinib] (partner 1 µM)
Procedure, shortened: as §1

[4] = compound: C=CCNC1=C2C[C@@H](C)C[C@H](OC)[C@H](O)[C@@H](C)/C=C(\C)[C@H](OC(N)=O)[C@@H](OC)/C=C\C=C(/C)C(=O)NC(=CC1=O)C2=O [17-AAG] + CCNC(=O)c1noc(-c2cc(C(C)C)c(O)cc2O)c1-c1ccc(CN2CCOCC2)cc1 [Luminespib] (partner 0.01 µM)
Procedure, shortened: as §1

Cell Line | relative viability ([1]; first compound 0.00128 µM) | relative viability ([1]; first compound 0.004048 µM) | relative viability ([1]; first compound 0.0128 µM) | relative viability ([1]; first compound 0.04048 µM) | relative viability ([1]; first compound 0.128 µM) | relative viability ([2]; first compound 0.00128 µM) | relative viability ([2]; first compound 0.004048 µM) | relative viability ([2]; first compound 0.0128 µM) | relative viability ([2]; first compound 0.04048 µM) | relative viability ([2]; first compound 0.128 µM) | relative viability ([3]; first compound 0.00128 µM) | relative viability ([3]; first compound 0.004048 µM) | relative viability ([3]; first compound 0.0128 µM) | relative viability ([3]; first compound 0.04048 µM) | relative viability ([3]; first compound 0.128 µM) | relative viability ([4]; first compound 0.00128 µM) | relative viability ([4]; first compound 0.004048 µM) | relative viability ([4]; first compound 0.0128 µM) | relative viability ([4]; first compound 0.04048 µM) | relative viability ([4]; first compound 0.128 µM)
NCI-H661 | 0.445 | 0.436 | 0.47 | 0.416 | 0.259 | 0.713 | 0.672 | 0.636 | 0.261 | 0.21 | 0.558 | 0.569 | 0.516 | 0.45 | 0.259 | 0.872 | 0.895 | 0.797 | 0.353 | 0.257
NCI-H596 | 1.19 | 1.06 | 1.17 | 0.996 | 0.818 | 0.742 | 0.713 | 0.854 | 0.519 | 0.274 | 1.12 | 0.93 | 0.943 | 0.82 | 0.783 | 1.08 | 0.865 | 0.996 | 0.548 | 0.414
NCI-H727 | 0.775 | 0.765 | 0.829 | 0.238 | 0.342 | 0.602 | 0.573 | 0.506 | 0.359 | 0.24 | 0.312 | 0.252 | 0.176 | 0.179 | 0.22 | 0.607 | 0.245 | 0.331 | 0.316 | 0.284
LK-2 | 1.04 | 1.01 | 0.752 | 0.464 | 0.158 | 0.26 | 0.225 | 0.151 | 0.138 | 0.144 | 0.575 | 0.463 | 0.615 | 0.479 | 0.136 | 0.201 | 0.162 | 0.181 | 0.17 | 0.177
NCI-H1993 | 0.767 | 0.76 | 0.627 | 0.45 | 0.451 | 0.586 | 0.636 | 0.593 | 0.394 | 0.41 | 0.764 | 0.718 | 0.711 | 0.573 | 0.5 | 0.919 | 0.625 | 0.516 | 0.273 | 0.423
PC-14 | 0.315 | 0.304 | 0.311 | 0.156 | 0.113 | 0.803 | 0.289 | 0.0511 | 0.0734 | 0.0603 | 1 | 0.879 | 0.575 | 0.169 | 0.124 | 0.146 | 0.111 | 0.143 | 0.162 | 0.128
NCI-H1437 | 0.825 | 0.7 | 0.247 | 0.151 | 0.0848 | 0.877 | 0.836 | 0.656 | 0.186 | 0.123 | 0.995 | 0.788 | 0.787 | 0.128 | 0.112 | 1.09 | 0.818 | 0.631 | 0.206 | 0.19
NCI-H460 | 0.962 | 0.451 | 0.016 | 0.0135 | 0.0137 | 0.62 | 0.413 | 0.0464 | 0.0193 | 0.0168 | 0.771 | 0.0998 | 0.0141 | 0.0124 | 0.009 | 0.0254 | 0.0275 | 0.0254 | 0.0299 | 0.023
SW 1573 | 1.06 | 1.21 | 0.897 | 0.217 | 0.117 | 0.639 | 0.444 | 0.163 | 0.108 | 0.091 | 0.987 | 0.901 | 0.647 | 0.249 | 0.128 | 0.285 | 0.168 | 0.146 | 0.12 | 0.0673
BEN | 0.859 | 0.726 | 0.727 | 0.405 | 0.204 | 0.337 | 0.307 | 0.256 | 0.232 | 0.2 | 0.971 | 0.947 | 0.911 | 0.89 | 0.276 | 0.33 | 0.408 | 0.206 | 0.241 | 0.194
LC-2-ad | 1.01 | 0.877 | 0.548 | 0.126 | 0.0893 | 0.699 | 0.542 | 0.426 | 0.301 | 0.241 | 0.861 | 0.883 | 0.857 | 0.362 | 0.136 | 0.949 | 0.83 | 0.305 | 0.302 | 0.258
COR-L23 | 0.769 | 0.82 | 1.06 | 0.852 | 0.169 | 0.853 | 0.786 | 0.817 | 0.661 | 0.0974 | 0.919 | 0.952 | 0.943 | 0.473 | 0.138 | 0.648 | 0.504 | 0.46 | 0.11 | 0.0893
SK-LU-1 | 0.812 | 0.545 | 0.454 | 0.216 | 0.14 | 0.342 | 0.17 | 0.102 | 0.0747 | 0.0783 | 1.19 | 0.455 | 0.352 | 0.212 | 0.191 | 0.215 | 0.174 | 0.176 | 0.177 | 0.15
